These results are taken from US20230219939A1, “N-(1-CYANO-PYRROLIDIN-3-YL)-5-(3-(TRIFLUOROMETHYL)PHENYL)OXAZOLE-2-CARBOXAMIDE DERIVATIVES AND THE CORRESPONDING OXADIAZOLE DERIVATIVES AS USP30 INHIBITORS FOR THE TREATMENT OF MITOCHONDRIAL DYSFUNCTION” (MISSION THERAPEUTICS LIMITED, priority 2020, published 2023).

Series [1] has as its target T1, UCHL1 (Homo sapiens, UniProt P09936).
T1 sequence (P09936 1-223): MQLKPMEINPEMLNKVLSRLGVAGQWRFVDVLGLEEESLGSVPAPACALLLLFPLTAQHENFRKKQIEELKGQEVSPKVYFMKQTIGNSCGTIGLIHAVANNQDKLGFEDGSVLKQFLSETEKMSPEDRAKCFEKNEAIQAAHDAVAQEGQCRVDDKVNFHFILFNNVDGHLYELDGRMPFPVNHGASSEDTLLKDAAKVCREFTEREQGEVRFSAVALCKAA
Kind of series: UCHL1 DUB IC50. Format: biochemical.

The target of series [2] is T2, USP30 (Homo sapiens, UniProt Q70CQ3).
T2 construct: purchased Boston Biochem E582
T2 sequence (Q70CQ3 57-517 limits assumed): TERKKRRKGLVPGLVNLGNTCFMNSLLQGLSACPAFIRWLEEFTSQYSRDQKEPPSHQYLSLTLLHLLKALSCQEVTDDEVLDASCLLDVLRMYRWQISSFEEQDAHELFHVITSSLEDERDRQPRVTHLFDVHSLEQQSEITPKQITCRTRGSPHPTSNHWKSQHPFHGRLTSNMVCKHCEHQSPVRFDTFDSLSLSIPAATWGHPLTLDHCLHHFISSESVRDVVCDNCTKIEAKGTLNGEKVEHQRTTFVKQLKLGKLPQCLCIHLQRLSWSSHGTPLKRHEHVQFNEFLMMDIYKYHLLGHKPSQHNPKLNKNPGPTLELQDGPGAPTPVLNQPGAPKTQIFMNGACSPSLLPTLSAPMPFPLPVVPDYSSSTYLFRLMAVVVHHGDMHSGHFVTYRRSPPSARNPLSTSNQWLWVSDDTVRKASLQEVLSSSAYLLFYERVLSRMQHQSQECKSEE
The series can be described thus: USP30 biochemical IC50 assay (fluorescence polarisation). The protocol:
Dilution plates were prepared at 21 times the final concentration (2100 μM for a final concentration of 100 μM) in 50% DMSO in a 96-well polypropylene V-bottom plate (Greiner #651201). A typical 8-point dilution series would be 100, 30, 10, 3, 1, 0.3, 0.1, 0.03 μM final. Reactions were performed in duplicate in black 384 well plates (small volume, Greiner 784076) in a final reaction volume of 21 μl. Either 1 μl of 50% DMSO or diluted compound was added to the plate. USP30 (Boston Biochem #E582) was diluted in reaction buffer (40 mM Tris, pH 7.5, 0.005% Tween 20, 0.5 mg/ml BSA, 5 mM beta-mercaptoethanol) to achieve a final assay concentration of 4 nM, and 10 μl of diluted USP30 was added to the compound. Enzyme and compound were incubated for 30 min at room temp. Reactions were initiated by the addition of 50 nM of TAMRA labelled peptide linked to ubiquitin via an iso-peptide bond as fluorescence polarisation substrate. Reactions were read immediately after addition of substrate and following a 2-hour incubation at room temperature. Readings were performed on a Pherastar Plus (BMG Labtech). λ Excitation 540 nm; λ Emission 590 nm.
A general note: Polarisation of emitted light reports the rotation of a fluorescent probe.

In series [3] the test system is USP2, USP6, USP10, USP16, USP21, USP22, USP25, USP28. Kind of series: DUB selectivity panel IC50. Type of series: biochemical.
Series [4] has as its target Cathepsin B (Homo sapiens, UniProt P07858). Kind of series: Cathepsin B IC50. Type of series: biochemical.
Series [5] has as its target Cathepsin L (Homo sapiens, UniProt P07711). Kind of series: Cathepsin L IC50. Format: biochemical.
Series [6] concerns the target Cathepsin V (Homo sapiens, UniProt O60911). Kind of series: Cathepsin V IC50. Format: biochemical.
The test system of series [7] is Cathepsins B, K, L, S, V. The series can be described thus: Cathepsin panel IC50 (summary over B, K, L, S, V). Format: biochemical. The note with it: for IC50: range over the five cathepsins.
Series [8] addresses T3, Cathepsin K (Homo sapiens, UniProt P43235).
T3 sequence (P43235 115-329): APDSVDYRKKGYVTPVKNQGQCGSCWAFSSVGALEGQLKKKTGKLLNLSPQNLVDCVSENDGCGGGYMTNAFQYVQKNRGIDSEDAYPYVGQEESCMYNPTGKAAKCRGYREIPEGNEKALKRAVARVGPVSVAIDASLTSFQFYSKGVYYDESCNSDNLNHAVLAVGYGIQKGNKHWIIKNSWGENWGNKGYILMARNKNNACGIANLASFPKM
Kind of series: Cathepsin K IC50. Type of series: biochemical.

The target of series [9] is Cathepsin S (Homo sapiens, UniProt P25774). Kind of series: Cathepsin S IC50. Type of series: biochemical.
For series [10], the system named is mouse hepatocytes. Kind of series: Hepatocyte Cl mouse. Type of series: in vitro ADME. How it is done: Hep Cl mouse: in vitro hepatocyte clearance in mouse cells.
Clu: in vitro clearance. Clu as defined here is the scaled clearance, in turn calculated from the intrinsic clearance. The intrinsic clearance is the predicted clearance due to hepatic metabolic reactions, determined from incubation of a compound in a hepatocyte preparation.

A short description of series [11]: Mouse plasma stability. Format: in vitro ADME. The note with it: mouse plasma; read-out: Stability Mouse plasma t1/2.
Where [12] appears, read: USP30 biochemical IC50 assay, read-out: USP30 IC50.
Setting [13] is: range over the eight DUBs, read-out: DUB IC50 (μM) USP2, USP6, USP10, USP16, USP21, USP22, USP25, USP28.
[14] abbreviates: read-out: Cathepsin IC50 (μM) Cathepsin L.
The mark [15] stands for this setting: read-out: Cathepsin IC50 (μM) B, K, L, S, V.

“And” between values parts separate entries of the source, which are not always exact repeats. Identical values can stand only once. Like-named read-outs stand apart in the source and are kept apart here. Some results are limits rather than exact numbers.

Chain of Cathepsin L (P07711 114-333, species assumed): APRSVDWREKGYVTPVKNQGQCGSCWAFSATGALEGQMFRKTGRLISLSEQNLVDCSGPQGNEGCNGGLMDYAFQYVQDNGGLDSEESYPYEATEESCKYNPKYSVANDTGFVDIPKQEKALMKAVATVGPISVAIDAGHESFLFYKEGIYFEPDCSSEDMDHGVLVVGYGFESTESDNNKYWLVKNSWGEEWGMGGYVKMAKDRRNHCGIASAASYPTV
Chain of Cathepsin V (O60911 114-334, species assumed): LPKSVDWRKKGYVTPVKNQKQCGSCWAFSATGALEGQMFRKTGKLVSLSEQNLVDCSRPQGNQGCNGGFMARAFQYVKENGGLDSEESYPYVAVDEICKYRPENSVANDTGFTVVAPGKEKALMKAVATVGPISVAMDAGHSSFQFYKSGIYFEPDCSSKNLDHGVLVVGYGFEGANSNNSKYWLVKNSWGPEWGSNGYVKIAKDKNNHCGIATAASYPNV
Chain of Cathepsin S (P25774 115-331, species assumed): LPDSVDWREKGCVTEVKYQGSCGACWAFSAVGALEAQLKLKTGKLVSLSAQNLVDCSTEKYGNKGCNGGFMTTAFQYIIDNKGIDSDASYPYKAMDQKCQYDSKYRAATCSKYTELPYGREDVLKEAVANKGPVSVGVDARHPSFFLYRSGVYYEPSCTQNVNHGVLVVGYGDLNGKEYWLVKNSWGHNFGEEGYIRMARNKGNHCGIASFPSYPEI

With `N#CN1CC[C@H](C(=O)Nc2ncc(-c3ccccc3)s2)C1` [C, reference compound], in series [1], the “fold more potent against USP30 than UCHL1” value came out at 0.8 fold.

Consider `C[C@@H]1C[C@@H](NC(=O)c2ncc(-c3cccc(C(F)(F)F)c3)o2)CN1C#N` [Example 2, N-((3R,5R)-1-cyano-5-methylpyrrolidin-3-yl)-5-(3-(trifluoromethyl)phenyl)oxazole-2-carboxamide], for which the IC50 (in general, the midpoint of a concentration-inhibition curve) in [2] (setting [12]) was 0.008 µM; in series [2] (read-out: DUB IC50 (μM) USP30), 0.008 µM; in [3] (setting [13]) it was 17.2 to 108 µM; in series [1], 280 µM; in [4], 79 µM; in series [5] (setting [14]), 7.9 µM. The same molecule returned a half-maximal inhibitory concentration (IC50) in series [6] of 56 µM.

In the case of `CS(=O)(=O)C[C@@H]1C[C@@H](NC(=O)c2ncc(-c3cccc(C(F)(F)F)c3)o2)CN1C#N` [Example 3, N-((3R,5S)-1-Cyano-5-((methylsulfonyl)methyl)pyrrolidin-3-yl)-5-(3-(trifluoromethyl)phenyl)-oxazole-2-carboxamide], the half-maximal inhibitory concentration (IC50) in series [2] (setting [12]) is 0.003 µM.

`N#CN1C[C@H](NC(=O)c2ncc(-c3cccc(C(F)(F)F)c3)o2)C[C@H]1Cn1ccnn1` [Example 4, N-((3R,5S)-5-((1H-1,2,3-Triazol-1-yl)methyl)-1-cyanopyrrolidin-3-yl)-5-(3-(trifluoromethyl)phenyl) oxazole-2-carboxamide]: the half-maximal inhibitory concentration (IC50) in series [2] (setting [12]) stood at 0.004 µM.

Regarding `COC[C@@H]1C[C@@H](NC(=O)c2nnc(-c3cc(C(F)(F)F)ccc3OC3CC3)o2)CN1C#N` [Example 5, N-((3R,5S)-1-Cyano-5-(methoxymethyl)pyrrolidin-3-yl)-5-(2-cyclopropoxy-5-(trifluoromethyl)phenyl)-1,3,4-oxadiazole-2-carboxamide], the IC50 in [2] (setting [12]) was found to be 0.041 µM.

Turning to `C[C@@H]1C[C@@H](NC(=O)c2nnc(-c3cc(C(F)(F)F)ccc3OC3CC3)o2)CN1C#N` [Example 6, N-((3R,5R)-1-Cyano-5-methylpyrrolidin-3-yl)-5-(2-cyclopropoxy-5-(trifluoromethyl)phenyl)-1,3,4-oxadiazole-2-carboxamide], in series [2] (setting [12]), the IC50 came to 0.073 µM.

Turning to `C[C@@H]1C[C@@H](NC(=O)c2nnc(-c3cccc(C(F)(F)F)c3)o2)CN1C#N` [Example 7, N-((3R,5R)-1-Cyano-5-methylpyrrolidin-3-yl)-5-(3-(trifluoromethyl)phenyl)-1,3,4-oxadiazole-2-carboxamide], the values for the half-inhibitory concentration (IC50) in series [2] (setting [12]), in series [2] (read-out: DUB IC50 (μM) USP30) and in series [1] were 0.033 µM, 0.004 to 0.033 µM and more than 300 µM, respectively.

Consider `COC[C@@H]1C[C@@H](NC(=O)c2nnc(-c3cccc(C(F)(F)F)c3)o2)CN1C#N` [Example 8, N-((3R,5S)-1-Cyano-5-(methoxymethyl)pyrrolidin-3-yl)-5-(3-(trifluoromethyl)phenyl)-1,3,4-oxadiazole-2-carboxamide], for which the IC50 in [2] (setting [12]) is 0.038 µM; in series [2] (read-out: DUB IC50 (μM) USP30) it was 0.038 µM and 0.004 to 0.033 µM; in series [3] (setting [13]), 4.6 to 78.9 µM; in [1] it was more than 300 µM; in series [4] it was 116 µM; in series [5] (setting [14]) it was more than 30 µM. Besides, in [6], the IC50 was more than 30 µM.

Take `COC[C@@H]1C[C@@H](NC(=O)c2ncc(-c3cc(C(F)(F)F)ccc3OC3CC3)o2)CN1C#N` [Example 9, N-((3R,5S)-1-cyano-5-(methoxymethyl)pyrrolidin-3-yl)-5-(2-cyclopropoxy-5-(trifluoromethyl)phenyl)-oxazole-2-carboxamide]: the IC50 in series [2] (setting [12]) is 0.004 µM; in [2] (read-out: DUB IC50 (μM) USP30), 0.004 µM and 0.004 to 0.033 µM; in series [3] (setting [13]) it was 2.9 to 135 µM; in series [1] it was more than 300 µM; in series [4] it was more than 300 µM; in series [5] (setting [14]), 18.2 µM. Moreover, the half-maximal inhibitory concentration (IC50) is 101 µM in series [6] and not below 9.9 µM in series [7] (setting [15]).

On to `COC[C@@H]1C[C@@H](NC(=O)c2nnc(-c3cc(C(F)(F)F)ccc3OC)o2)CN1C#N` [Example 10, N-((3R,5S)-1-Cyano-5-(methoxymethyl)pyrrolidin-3-yl)-5-(2-methoxy-5-(trifluoromethyl)phenyl)-1,3,4-oxadiazole-2-carboxamide], for which the IC50 in series [2] (setting [12]) was found to be 0.041 µM.

As to `COC[C@@H]1C[C@@H](NC(=O)c2nnc(-c3cc(C(F)(F)F)ccc3Cl)o2)CN1C#N` [Example 11, 5-(2-Chloro-5-(trifluoromethyl)phenyl)-N-((3R,5S)-1-cyano-5-(methoxymethyl)pyrrolidin-3-yl)-1,3,4-oxadiazole-2-carboxamide], the IC50 was 0.022 µM in [2] (setting [12]), 0.004 to 0.033 µM in series [2] (read-out: DUB IC50 (μM) USP30) and more than 300 µM in [1].

Regarding `COC[C@H]1C[C@@H](NC(=O)c2ncc(-c3cccc(C(F)(F)F)c3)o2)CN1C#N` [Example 12, N-((3R,5R)-1-Cyano-5-(methoxymethyl)pyrrolidin-3-yl)-5-(3-(trifluoromethyl)phenyl)oxazole-2-carboxamide], the half-maximal inhibitory concentration (IC50) was 0.015 µM in series [2] (setting [12]); 0.015 µM in [2] (read-out: DUB IC50 (μM) USP30); more than 300 µM in series [3] (setting [13]); 149 µM in [1]; more than 300 µM in series [4]; more than 30 µM in series [8]. Also, the IC50 in series [5] (setting [14]), in series [9], in series [6] and in series [7] (setting [15]) was more than 30 µM throughout. In series [3], the “DUB selectivity preference for USP30 v 8 DUBs” value was more than 20000. Also, the “DUB selectivity preference for USP30 v UCHL1” value in [1] is 9933. Further, in series [7], the “Selectivity preference for USP30 v cathepsins” value was more than 2000.

`N#CN1CC[C@@H](NC(=O)c2cc(-c3ccc(C(F)(F)F)cc3)no2)C1` [Reference Example A, reference compound]: the IC50 in series [2] (setting [12]) is 0.12 µM; in [2] (read-out: DUB IC50 (μM) USP30), 0.12 µM; in series [3] (range over seven DUBs, exc. USP6, read-out: DUB IC50 (μM) USP2, USP6, USP10, USP16, USP21, USP22, USP25, USP28 (exc. USP6)), 0.81 to 3 µM; in [4], 0.85 µM; in [5] (read-out: Cathepsin IC50 (μM) Cathepsin U), 2.1 µM; in series [6], 7.2 µM. Further, the IC50 in series [7] (read-out: Cathepsin IC50 (μM) B, K, U, S, V) was not below 0.73 µM. The “Hepatocyte Cl mouse Scaled Clu” value in series [10] was determined as 118 mL/min/kg. In addition, the half-life in series [11] was more than 2 h.

With `CC1CC(C(=O)Nc2ncc(-c3ccccc3)s2)CN1C#N` (stereo not drawn) [Reference Example D, reference compound], the “fold more potent against USP30 than UCHL1” value in series [1] is 1.5 fold.
